# Test results taken from patent publication US20260015328A1, “ATM KINASE INHIBITORS” (Eberhard Karls Universität Tübingen, priority 2023, published 2026).
# Molecular target: isolated ATM kinase (Homo sapiens (Human), UniProt Q13315)
# Experiment: FRET-based ATM activity assay at Reaction Biology Corp. (IC50^I)
# Type: biochemical
# Details: Table 13; read-out: IC50 [nM], IC50^I
# Chain of isolated ATM kinase (Q13315 whole entry): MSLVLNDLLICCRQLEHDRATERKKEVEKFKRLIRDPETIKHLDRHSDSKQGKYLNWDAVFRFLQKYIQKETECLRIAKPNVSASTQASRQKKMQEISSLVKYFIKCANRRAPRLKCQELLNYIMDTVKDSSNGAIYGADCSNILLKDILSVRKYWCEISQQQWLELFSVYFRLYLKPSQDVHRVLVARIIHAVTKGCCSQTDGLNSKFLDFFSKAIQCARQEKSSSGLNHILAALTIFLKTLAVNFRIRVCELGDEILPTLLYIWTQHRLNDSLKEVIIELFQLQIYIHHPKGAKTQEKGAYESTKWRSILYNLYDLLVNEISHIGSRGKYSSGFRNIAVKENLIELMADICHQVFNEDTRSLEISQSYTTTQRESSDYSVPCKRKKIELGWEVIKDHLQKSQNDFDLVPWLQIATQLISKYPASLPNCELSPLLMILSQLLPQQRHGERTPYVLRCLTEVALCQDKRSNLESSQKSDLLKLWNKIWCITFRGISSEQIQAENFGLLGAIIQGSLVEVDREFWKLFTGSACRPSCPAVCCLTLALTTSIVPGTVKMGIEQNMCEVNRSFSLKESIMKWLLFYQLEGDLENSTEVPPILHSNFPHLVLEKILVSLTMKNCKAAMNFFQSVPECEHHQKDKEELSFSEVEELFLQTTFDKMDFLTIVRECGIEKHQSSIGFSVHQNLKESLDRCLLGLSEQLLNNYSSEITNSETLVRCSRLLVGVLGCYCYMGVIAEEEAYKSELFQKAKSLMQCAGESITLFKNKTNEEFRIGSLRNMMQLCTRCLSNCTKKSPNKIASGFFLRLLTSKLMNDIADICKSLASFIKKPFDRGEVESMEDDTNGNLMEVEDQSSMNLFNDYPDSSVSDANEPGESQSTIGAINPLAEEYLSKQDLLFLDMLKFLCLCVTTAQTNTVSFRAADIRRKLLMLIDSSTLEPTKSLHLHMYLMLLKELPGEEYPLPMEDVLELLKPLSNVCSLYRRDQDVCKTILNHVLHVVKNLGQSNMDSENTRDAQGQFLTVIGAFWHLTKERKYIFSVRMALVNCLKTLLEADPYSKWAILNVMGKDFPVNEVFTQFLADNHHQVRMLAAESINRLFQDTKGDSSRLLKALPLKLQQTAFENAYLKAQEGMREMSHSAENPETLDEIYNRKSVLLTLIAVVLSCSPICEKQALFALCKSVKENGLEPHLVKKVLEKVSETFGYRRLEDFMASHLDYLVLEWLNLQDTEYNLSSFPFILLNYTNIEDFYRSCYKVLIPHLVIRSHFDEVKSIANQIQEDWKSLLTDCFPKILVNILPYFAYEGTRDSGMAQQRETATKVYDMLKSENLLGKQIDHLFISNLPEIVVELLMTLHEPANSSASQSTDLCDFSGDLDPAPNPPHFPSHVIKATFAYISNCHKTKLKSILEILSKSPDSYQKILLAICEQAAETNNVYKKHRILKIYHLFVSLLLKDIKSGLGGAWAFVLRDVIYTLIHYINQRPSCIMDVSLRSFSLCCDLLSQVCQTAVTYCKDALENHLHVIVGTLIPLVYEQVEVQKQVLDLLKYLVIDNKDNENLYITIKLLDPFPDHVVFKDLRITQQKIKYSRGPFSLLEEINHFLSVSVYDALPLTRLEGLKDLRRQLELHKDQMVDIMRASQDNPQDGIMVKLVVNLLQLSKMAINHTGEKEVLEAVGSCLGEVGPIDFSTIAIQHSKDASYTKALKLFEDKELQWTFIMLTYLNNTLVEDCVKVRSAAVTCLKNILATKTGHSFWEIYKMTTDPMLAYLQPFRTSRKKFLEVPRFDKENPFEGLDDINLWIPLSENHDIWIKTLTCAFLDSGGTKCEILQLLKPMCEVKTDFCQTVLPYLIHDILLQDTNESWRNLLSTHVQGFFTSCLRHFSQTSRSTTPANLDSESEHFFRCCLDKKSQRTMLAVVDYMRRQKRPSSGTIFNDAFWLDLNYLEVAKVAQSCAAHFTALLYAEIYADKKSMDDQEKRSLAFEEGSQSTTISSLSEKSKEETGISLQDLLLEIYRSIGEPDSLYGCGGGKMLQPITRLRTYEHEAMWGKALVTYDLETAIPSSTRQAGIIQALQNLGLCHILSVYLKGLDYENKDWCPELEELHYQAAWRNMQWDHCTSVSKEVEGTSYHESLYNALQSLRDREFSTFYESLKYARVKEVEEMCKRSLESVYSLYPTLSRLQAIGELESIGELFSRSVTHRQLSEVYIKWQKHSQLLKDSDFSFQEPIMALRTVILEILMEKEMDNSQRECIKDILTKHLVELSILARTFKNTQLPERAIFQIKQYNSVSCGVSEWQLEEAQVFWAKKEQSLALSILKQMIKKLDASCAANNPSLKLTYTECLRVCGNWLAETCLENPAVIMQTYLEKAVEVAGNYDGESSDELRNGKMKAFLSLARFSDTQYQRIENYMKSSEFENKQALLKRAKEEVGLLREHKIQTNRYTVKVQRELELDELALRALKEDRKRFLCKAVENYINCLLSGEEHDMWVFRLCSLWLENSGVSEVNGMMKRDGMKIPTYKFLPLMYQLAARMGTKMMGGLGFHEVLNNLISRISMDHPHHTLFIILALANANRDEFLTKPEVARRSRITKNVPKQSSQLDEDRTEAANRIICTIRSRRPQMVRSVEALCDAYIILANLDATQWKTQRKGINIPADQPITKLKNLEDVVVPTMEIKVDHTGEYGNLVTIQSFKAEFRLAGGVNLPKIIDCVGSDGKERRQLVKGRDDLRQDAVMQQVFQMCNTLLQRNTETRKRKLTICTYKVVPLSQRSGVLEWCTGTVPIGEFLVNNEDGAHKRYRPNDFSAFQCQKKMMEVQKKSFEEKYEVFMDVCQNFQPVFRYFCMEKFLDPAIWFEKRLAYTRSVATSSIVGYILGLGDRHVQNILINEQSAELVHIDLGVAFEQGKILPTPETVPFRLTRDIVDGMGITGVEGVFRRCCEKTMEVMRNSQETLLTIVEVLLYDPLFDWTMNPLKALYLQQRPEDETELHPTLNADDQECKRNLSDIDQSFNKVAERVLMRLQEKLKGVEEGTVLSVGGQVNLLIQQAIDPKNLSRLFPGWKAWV
row,IC50 [nM],SMILES
1,16,"CN(C)CCNC(=O)Nc1ccc(-c2ccc3ncn(-c4ccc5c(c4)CCCC5)c3c2)cc1 [TD-547, 1-(2-(dimethylamino)ethyl)-3-(4-(1-(5,6,7,8-tetrahydronaphthalen-2-yl)-1H-benzo[d]imidazol-6-yl)phenyl)urea]"
2,60,"COc1cc(-n2cnc3ccc(-c4ccc(NC(=O)NCCN(C)C)cc4)cc32)cc(OC)c1OC [TD-309, 1-(2-(dimethylamino)ethyl)-3-(4-(1-(3,4,5-trimethoxyphenyl)-1H-benzo[d]imidazol-6-yl)phenyl)urea]"
3,23,"CN(C)CCSc1ccc(-c2ccc3ncn(-c4cccc(NS(C)(=O)=O)c4)c3c2)cc1 [TD-472, N-(3-(6-(4-((2-(dimethylamino)ethyl)thio)phenyl)-1H-benzo[d]imidazol-1-yl)phenyl)methanesulfonamide]"
4,7,"COCC(=O)Nc1cccc(-n2cnc3ccc(-c4ccc(NC(=O)NCCN(C)C)cc4)cc32)c1 [TD-344, N-(3-(6-(4-(3-(2-(dimethylamino)ethyl)ureido)phenyl)-1H-benzo[d]imidazol-1-yl)phenyl)-2-methoxyacetamide]"
5,343,"CN1CCN2C(=O)N(c3ccc(-c4ccc5ncn(-c6cccc(NS(C)(=O)=O)c6)c5c4)cc3)CC2C1 (centres unmarked) [TD-448, N-(3-(6-(4-(7-methyl-3-oxohexahydroimidazo[1,5-a]pyrazin-2(3H)-yl)phenyl)-1H-benzo[d]imidazol-1-yl)phenyl)methanesulfonamide]"
6,10,"COCC(=O)Nc1ccc(-n2cnc3ccc(-c4ccc(NC(=O)NCCN(C)C)cc4)cc32)cc1 [TD-339, N-(4-(6-(4-(3-(2-(dimethylamino)ethyl)ureido)phenyl)-1H-benzo[d]imidazol-1-yl)phenyl)-2-methoxyacetamide]"

# Molecular target: ATM (h) (Homo sapiens (Human), UniProt Q13315)
# Experiment: ATM assay at Eurofins KinaseProfiler with adjusted concentration range (IC50^II)
# Type: biochemical
# Details: Table 13; assay variant (I or II) not given; read-out: IC50
# Chain of ATM (h) (Q13315 whole entry): as above
row,IC50 [nM],SMILES
1,386,"COc1cc2ncn(-c3ccc4c(c3)N(S(C)(=O)=O)CC4)c2cc1-c1ccc(OCCCN(C)C)nc1 [TD-630, 3-((5-(5-methoxy-1-(1-(methylsulfonyl)indolin-6-yl)-1H-benzo[d]imidazol-6-yl)pyridin-2-yl)oxy)-N,N-dimethylpropan-1-amine]"

# Same assay, conditions: Table 13; read-out: IC50 [nM], IC50^II
row,IC50 [nM],SMILES
1,237,"CN(C)CCCn1cc(-c2ccc3ncn(-c4ccc5c(c4)N(S(C)(=O)=O)CC5)c3n2)cn1 [TD-623, N,N-dimethyl-3-(4-(3-(1-(methylsulfonyl)indolin-6-yl)-3H-imidazo[4,5-b]pyridin-5-yl)-1H-pyrazol-1-yl)propan-1-amine]"
2,2,"CN(C)CCc1nc2cc(-c3ccc4ncn(-c5ccc6c(c5)N(S(C)(=O)=O)CC6)c4c3)ccc2[nH]1 [TD-607, N,N-dimethyl-2-(3′-(1-(methylsulfonyl)indolin-6-yl)-1H,3′H-[5,5′-bibenzo[d]imidazol]-2-yl)ethan-1-amine]"
3,113,"COc1cc2ncn(-c3ccc4c(c3)N(S(C)(=O)=O)CC4)c2cc1-c1ccc(NC(=O)NCCN(C)C)cc1 [TD-634, 1-(2-(dimethylamino)ethyl)-3-(4-(5-methoxy-1-(1-(methylsulfonyl)indolin-6-yl)-1H-benzo[d]imidazol-6-yl)phenyl)urea]"
4,106,"CS(=O)(=O)N1CCc2ccc(-n3cnc4ccc(-c5ccc(CO)cc5)cc43)cc21 [TD-587, (4-(1-(1-(methylsulfonyl)indolin-6-yl)-1H-benzo[d]imidazol-6-yl)phenyl)methanol]"
